Results taken from patent US20220370440A1 (Lead Discovery Center GmbH, priority 2018, published 2022).

Assays:
HER2 INS YVMA = target: T1, HER2 INS YVMA (Homo sapiens, UniProt P04626, INS775YVMA); experiment: Lance Kinase Activity Assay, HER2 INS YVMA (Her2 Exon 20 INSYVMA Lance); type: biochemical; settings: biochemical Lance assay
T1 construct: purchased DPF
Summary of the method: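 IC50 was fitted to sigmoidal curves of TR-FRET signal (665 and 615 nm emission after 340 nm excitation) from an Eu anti-phospho antibody binding the phosphorylated ULight peptide. The ATP-started reaction ran 1 h at RT and was then quenched with 10 mM EDTA plus antibody for a further 1 h. Compounds were tested as 8-point, 3-fold dilutions.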

[1] = target: Her2 Exon 20 INSYVMA Ba/F3 (Homo sapiens, UniProt P04626, DUP772-775, cells depend on it); experiment: Her2 Exon 20 INSYVMA Ba/F3 CellTiter-Glo; type: cell-based; settings: CellTiter-Glo, 72 h, read-out: Her2 Exon 20 INSYVMA Ba/F3 CTG IC50
Summary of the method: (§1)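 IC50 values come from dose–response fits of CellTiter-Glo luminescence in Ba/F3 cells treated with compound for 72 h at 37 °C, 5% CO2. Vehicle (DMSO) and 10 μM staurosporine wells set the assay window, with Z′ ≥0.5 required.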

[2] = target: EGFR Exon 20 INSNPH Ba/F3 (Homo sapiens, UniProt P00533, DUP771-773, cells depend on it); experiment: EGFR Exon 20 INSNPH Ba/F3 CellTiter-Glo; type: cell-based; settings: CellTiter-Glo, 72 h, read-out: EGFR Exon 20 INSNPH Ba/F3 CTG IC50
Chain of EGFR Exon 20 INSNPH Ba/F3 (P00533 with tags, fused parts or gaps DUP771-773): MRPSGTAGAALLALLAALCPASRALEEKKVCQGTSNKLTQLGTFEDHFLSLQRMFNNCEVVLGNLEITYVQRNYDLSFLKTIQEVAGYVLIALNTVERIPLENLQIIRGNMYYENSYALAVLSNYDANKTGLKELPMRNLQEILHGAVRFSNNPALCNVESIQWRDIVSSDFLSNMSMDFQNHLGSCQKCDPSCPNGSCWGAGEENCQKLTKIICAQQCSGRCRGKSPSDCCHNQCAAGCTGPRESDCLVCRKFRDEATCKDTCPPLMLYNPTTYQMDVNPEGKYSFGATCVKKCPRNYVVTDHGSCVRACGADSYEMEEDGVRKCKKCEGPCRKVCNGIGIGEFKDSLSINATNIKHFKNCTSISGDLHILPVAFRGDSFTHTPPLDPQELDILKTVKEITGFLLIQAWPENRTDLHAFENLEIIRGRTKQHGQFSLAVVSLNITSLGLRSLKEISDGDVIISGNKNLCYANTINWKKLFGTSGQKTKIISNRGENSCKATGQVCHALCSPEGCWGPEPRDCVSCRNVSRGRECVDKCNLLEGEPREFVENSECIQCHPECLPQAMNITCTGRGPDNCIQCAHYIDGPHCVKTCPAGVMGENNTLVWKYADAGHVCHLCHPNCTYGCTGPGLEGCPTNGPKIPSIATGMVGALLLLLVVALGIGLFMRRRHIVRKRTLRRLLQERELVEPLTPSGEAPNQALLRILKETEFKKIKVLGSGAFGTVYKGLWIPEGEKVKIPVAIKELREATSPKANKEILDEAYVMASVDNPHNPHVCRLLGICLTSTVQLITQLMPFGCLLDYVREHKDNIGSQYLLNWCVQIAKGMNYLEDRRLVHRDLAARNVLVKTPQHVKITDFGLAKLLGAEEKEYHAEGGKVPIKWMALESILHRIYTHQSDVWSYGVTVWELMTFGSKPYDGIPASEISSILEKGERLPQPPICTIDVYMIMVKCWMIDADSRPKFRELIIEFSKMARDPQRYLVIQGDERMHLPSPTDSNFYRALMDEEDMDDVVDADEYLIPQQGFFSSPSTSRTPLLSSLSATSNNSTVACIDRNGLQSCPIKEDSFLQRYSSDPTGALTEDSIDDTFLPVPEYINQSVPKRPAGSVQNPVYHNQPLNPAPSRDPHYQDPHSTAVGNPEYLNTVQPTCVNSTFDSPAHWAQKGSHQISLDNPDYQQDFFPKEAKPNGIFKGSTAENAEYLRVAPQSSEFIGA
Summary of the method: as §1

EGFR T790ML858R = EGFR T790ML858R (Homo sapiens, UniProt P00533, L858R/T790M); experiment: EGFR T790ML858R Lance assay; type: biochemical
Chain of EGFR T790ML858R (P00533 25-1210 T790M/L858R): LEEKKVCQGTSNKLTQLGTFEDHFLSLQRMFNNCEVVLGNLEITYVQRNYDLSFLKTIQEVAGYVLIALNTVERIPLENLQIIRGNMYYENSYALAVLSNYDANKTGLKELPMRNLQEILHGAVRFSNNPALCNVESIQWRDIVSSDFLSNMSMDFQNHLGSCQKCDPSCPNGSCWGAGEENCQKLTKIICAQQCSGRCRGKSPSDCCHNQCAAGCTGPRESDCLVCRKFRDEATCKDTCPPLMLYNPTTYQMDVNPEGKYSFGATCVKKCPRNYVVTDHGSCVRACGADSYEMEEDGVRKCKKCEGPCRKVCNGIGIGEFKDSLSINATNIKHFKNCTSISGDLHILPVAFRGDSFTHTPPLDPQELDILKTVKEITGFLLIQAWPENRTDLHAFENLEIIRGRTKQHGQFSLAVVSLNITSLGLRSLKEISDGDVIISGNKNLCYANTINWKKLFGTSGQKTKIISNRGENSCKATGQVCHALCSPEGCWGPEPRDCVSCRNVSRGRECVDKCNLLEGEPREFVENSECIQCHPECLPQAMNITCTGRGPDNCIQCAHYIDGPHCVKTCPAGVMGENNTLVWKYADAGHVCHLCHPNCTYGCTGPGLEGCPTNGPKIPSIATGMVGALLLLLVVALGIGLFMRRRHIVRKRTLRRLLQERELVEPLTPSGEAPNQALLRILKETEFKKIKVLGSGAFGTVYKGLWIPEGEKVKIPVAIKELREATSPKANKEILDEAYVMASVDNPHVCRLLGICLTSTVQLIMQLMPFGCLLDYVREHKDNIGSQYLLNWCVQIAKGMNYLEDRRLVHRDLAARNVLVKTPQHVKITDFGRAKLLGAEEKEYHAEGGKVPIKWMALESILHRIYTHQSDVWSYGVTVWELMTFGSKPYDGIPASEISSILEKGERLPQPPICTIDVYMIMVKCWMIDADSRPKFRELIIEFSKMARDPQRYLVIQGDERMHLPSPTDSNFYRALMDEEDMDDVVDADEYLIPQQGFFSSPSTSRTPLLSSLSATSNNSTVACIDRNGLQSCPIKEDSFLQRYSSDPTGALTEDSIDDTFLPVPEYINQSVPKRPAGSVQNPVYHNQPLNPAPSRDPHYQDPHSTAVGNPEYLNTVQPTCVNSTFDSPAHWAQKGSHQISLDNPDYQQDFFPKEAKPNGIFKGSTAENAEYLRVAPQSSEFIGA
Protocol: (§2) Inhibition is indicated as […] [nM] (“−”=not measured). Compounds having an activity designated as “A” provided an IC50≤100 nM; compounds having an activity designated as “B” provided an 100 nM<IC50≤500 nM; compounds having an activity designated as “C” provided an 500 nM<IC50≤1000 nM; compounds having an activity designated as “D” provided an 1000 nM<IC50≤100000 nM; and compounds having an activity designated as “E” provided an IC50>10000 nM.

EGFR wt = EGFR wt (Homo sapiens, UniProt P00533); experiment: EGFR wt Lance assay; type: biochemical
Chain of EGFR wt (P00533 25-1210): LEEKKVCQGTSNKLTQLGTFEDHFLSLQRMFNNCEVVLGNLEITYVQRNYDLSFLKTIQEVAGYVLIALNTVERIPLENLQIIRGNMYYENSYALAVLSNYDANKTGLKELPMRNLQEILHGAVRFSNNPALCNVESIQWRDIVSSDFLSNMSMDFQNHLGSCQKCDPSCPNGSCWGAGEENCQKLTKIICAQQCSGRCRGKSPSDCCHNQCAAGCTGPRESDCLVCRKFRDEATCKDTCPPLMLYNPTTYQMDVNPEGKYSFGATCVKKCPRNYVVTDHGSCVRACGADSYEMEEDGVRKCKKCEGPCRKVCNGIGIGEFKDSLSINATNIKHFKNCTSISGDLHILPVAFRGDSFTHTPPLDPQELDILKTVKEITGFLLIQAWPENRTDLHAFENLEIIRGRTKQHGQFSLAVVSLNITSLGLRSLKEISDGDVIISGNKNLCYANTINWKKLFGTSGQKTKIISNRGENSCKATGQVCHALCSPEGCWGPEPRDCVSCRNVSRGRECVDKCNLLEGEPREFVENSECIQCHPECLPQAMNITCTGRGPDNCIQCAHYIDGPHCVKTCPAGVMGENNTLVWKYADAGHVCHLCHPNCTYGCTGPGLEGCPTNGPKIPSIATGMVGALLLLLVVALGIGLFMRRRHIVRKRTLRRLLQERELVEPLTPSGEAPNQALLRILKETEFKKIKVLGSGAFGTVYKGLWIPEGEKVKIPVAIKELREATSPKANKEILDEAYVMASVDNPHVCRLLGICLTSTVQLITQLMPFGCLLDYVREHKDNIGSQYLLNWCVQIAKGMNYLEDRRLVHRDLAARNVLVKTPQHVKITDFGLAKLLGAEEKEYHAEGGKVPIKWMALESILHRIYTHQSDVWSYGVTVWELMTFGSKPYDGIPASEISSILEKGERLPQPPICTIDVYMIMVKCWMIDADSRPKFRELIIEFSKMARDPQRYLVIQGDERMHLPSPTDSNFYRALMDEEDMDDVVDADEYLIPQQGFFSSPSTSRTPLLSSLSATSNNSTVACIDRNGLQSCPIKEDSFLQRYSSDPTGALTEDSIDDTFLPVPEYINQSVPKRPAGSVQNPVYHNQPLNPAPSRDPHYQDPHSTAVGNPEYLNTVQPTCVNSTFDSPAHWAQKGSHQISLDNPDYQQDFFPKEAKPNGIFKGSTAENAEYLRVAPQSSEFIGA
Protocol: as §2

H1975 = H1975 CellTiter-Glo; type: cell-based; settings: Homo sapiens, NCI-H1975; 72 h compound incubation; read-out: H1975 CTG IC50
Summary of the method: (§3)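 Seed cells; incubate 24 h at 37° C., 5% CO2; add compound in DMSO over a concentration range; incubate 72 h; add CellTiter-Glo reagent, stabilise 10 min at room temperature; read luminescence; fit IC50.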

A431 = A431 CellTiter-Glo; type: cell-based; settings: Homo sapiens, A-431; 72 h compound incubation; read-out: A431 CTG IC50
Summary of the method: as §3

[3] = Metabolic stability in mouse liver microsomes without cofactor NADPH; type: in vitro ADME; settings: 3 μM test compound, mouse liver microsomes, without NADPH, 50 min, 37° C., LC-MS/MS
Summary of the method: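 Cofactor-free incubation: no NADPH added to mouse liver microsomes, with compound at 3 μM and 37° C. Remaining parent was quantified by LC-MS/MS at time points up to 50 minutes to track depletion.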

T1 sequence (P04626 with tags, fused parts or gaps INS775YVMA): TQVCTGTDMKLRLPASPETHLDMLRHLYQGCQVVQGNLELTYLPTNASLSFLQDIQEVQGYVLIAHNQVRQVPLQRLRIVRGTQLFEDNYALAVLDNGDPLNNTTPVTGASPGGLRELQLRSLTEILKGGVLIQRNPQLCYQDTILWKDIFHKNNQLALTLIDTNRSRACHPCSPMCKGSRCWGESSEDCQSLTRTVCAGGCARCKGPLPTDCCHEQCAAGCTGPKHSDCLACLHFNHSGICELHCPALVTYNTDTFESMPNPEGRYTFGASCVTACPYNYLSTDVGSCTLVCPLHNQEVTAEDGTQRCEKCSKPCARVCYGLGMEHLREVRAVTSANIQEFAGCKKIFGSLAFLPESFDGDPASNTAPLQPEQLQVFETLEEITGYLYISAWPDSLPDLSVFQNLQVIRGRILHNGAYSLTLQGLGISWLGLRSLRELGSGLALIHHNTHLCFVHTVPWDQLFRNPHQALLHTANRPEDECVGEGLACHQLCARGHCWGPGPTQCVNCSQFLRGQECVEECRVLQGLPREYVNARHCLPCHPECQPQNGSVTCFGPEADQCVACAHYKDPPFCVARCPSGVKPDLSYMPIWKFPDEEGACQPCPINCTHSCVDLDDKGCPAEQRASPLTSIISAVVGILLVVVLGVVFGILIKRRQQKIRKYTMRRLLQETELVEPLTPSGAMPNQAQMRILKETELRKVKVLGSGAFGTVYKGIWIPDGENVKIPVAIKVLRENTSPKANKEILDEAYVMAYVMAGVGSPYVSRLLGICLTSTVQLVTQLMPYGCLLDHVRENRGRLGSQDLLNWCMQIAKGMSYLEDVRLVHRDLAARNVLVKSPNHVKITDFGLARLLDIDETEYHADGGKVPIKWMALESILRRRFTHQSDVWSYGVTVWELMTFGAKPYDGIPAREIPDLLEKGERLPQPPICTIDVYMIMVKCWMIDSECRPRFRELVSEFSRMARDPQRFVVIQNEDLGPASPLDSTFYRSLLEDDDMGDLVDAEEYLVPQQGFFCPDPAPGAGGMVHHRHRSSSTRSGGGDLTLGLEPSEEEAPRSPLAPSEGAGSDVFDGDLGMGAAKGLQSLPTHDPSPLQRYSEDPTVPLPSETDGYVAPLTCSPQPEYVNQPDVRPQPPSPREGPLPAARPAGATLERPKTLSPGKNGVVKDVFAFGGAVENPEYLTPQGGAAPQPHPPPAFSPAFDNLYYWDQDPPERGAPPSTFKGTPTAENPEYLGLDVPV

SMILES	IC50 (HER2 INS YVMA) [µM]	GI50 [1] [µM]	GI50 [2] [µM]	IC50 (EGFR T790ML858R) [µM]	IC50 (EGFR wt) [µM]	IC50 (H1975) [µM]	IC50 (A431) [µM]	Stability in presence of mouse liver microsomes without cofactor NADPH [% remaining after 50 min] [3] [% remaining after 50 min]
C=CC(=O)Nc1cc(-c2c(-c3ccc(OCCN(C)C)cc3)[nH]c3ncc(C(=O)OC(C)C)cc23)ccc1C [Example 159, isopropyl 3-(3-acrylamido-4-methylphenyl)-2-(4-(2-(dimethylamino)ethoxy)phenyl)-1H-pyrrolo[2,3-b]pyridine-5-carboxylate]	≤ 0.1	0.1 to 0.5	0.1 to 0.5	≤ 0.1	≤ 0.1	0.1 to 0.5	1 to 100	>99
C=CC(=O)Nc1cc(-c2c(-c3ccc(N4CCN(C(C)C)CC4)cc3)[nH]c3nccc(Cl)c23)ccc1C [Example 41, N-(5-(4-chloro-2-(4-(4-isopropylpiperazin-1-yl)phenyl)-1H-pyrrolo[2,3-b]pyridin-3-yl)-2-methylphenyl)acrylamide]	≤ 0.1	≤ 0.1	≤ 0.1	≤ 0.1	≤ 0.1	≤ 0.1	0.1 to 0.5	>99
C=CC(=O)Nc1cc(-c2c(-c3ccc(OCCN4CCCC4)cc3)[nH]c3nccc(Cl)c23)ccc1C [Example 38, N-(5-(4-chloro-2-(4-(2-(pyrrolidin-1-yl)ethoxy)phenyl)-1H-pyrrolo[2,3-b]pyridin-3-yl)-2-methylphenyl)acrylamide]	≤ 0.1	≤ 0.1	≤ 0.1	≤ 0.1	≤ 0.1	≤ 0.1	0.1 to 0.5	>99
C=CC(=O)N1CCOc2ccc(-c3c(-c4ccc(N(C)CCN(C)C)cc4)[nH]c4nccc(Cl)c34)cc21 [Example 84, 1-(6-(4-chloro-2-(4-((2-(dimethylamino)ethyl)(methyl)amino)phenyl)-1H-pyrrolo[2,3-b]pyridin-3-yl)-2H-benzo[b][1,4]oxazin-4(3H)-yl)prop-2-en-1-one]	≤ 0.1	0.1 to 0.5	0.1 to 0.5	≤ 0.1	≤ 0.1	0.1 to 0.5	0.5 to 1	94
C=CC(=O)Nc1cc(-c2c(-c3ccc(N4CCN(C)CC4)cc3)[nH]c3ncc(C(=O)NC4CCCCC4)cc23)ccc1C [Example 120, 3-(3-acrylamido-4-methylphenyl)-N-cyclohexyl-2-(4-(4-methylpiperazin-1-yl)phenyl)-1H-pyrrolo[2,3-b]pyridine-5-carboxamide]	≤ 0.1	0.1 to 0.5	0.1 to 0.5	≤ 0.1	≤ 0.1	0.1 to 0.5	0.1 to 0.5	>99
C=CC(=O)Nc1cc(-c2c(-c3ccc(N4CCN(C)CC4)cc3)[nH]c3ncc(C#N)cc23)ccc1C [Example 97, N-(5-(5-cyano-2-(4-(4-methylpiperazin-1-yl)phenyl)-1H-pyrrolo[2,3-b]pyridin-3-yl)-2-methylphenyl)acrylamide 2,2,2-trifluoroacetate]	≤ 0.1	0.1 to 0.5	≤ 0.1	≤ 0.1	≤ 0.1	≤ 0.1	0.1 to 0.5	>99
C=CC(=O)N1CCc2ccc(-c3c(-c4ccc(N5CCN(C)CC5)nc4)[nH]c4nccc(Cl)c34)cc21 [Example 70, 1-(6-(4-chloro-2-(6-(4-methylpiperazin-1-yl)pyridin-3-yl)-1H-pyrrolo[2,3-b]pyridin-3-yl)indolin-1-yl)prop-2-en-1-one]	≤ 0.1	0.1 to 0.5	0.5 to 1	≤ 0.1	≤ 0.1	0.1 to 0.5	0.5 to 1	>99
C=CC(=O)Nc1cc(-c2c(-c3cnc(N4CCOCC4)nc3)[nH]c3nccc(Cl)c23)ccc1C [Example 36, N-(5-(4-chloro-2-(2-morpholinopyrimidin-5-yl)-1H-pyrrolo[2,3-b]pyridin-3-yl)-2-methylphenyl)acrylamide]	0.5 to 1	1 to 10	1 to 10	≤ 0.1	≤ 0.1	0.1 to 0.5	1 to 100	>99
C=CC(=O)Nc1cc(-c2c(-c3cccc(CN4CCN(C(C)=O)CC4)c3)[nH]c3ncccc23)ccc1C [Example 81, N-(5-(2-(3-((4-acetylpiperazin-1-yl)methyl)phenyl)-1H-pyrrolo[2,3-b]pyridin-3-yl)-2-methylphenyl)acrylamide]	1 to 10	1 to 10	1 to 10	≤ 0.1	0.1 to 0.5	1 to 100	1 to 100	80
C=CC(=O)N1CCc2ccc(-c3c(-c4ccc(N5CCN(C)CC5)cc4)[nH]c4nccc(OC)c34)cc21 [Example 110, 1-(6-(4-methoxy-2-(4-(4-methylpiperazin-1-yl)phenyl)-1H-pyrrolo[2,3-b]pyridin-3-yl)indolin-1-yl)prop-2-en-1-one]	≤ 0.1	0.1 to 0.5	0.1 to 0.5	≤ 0.1	≤ 0.1	≤ 0.1	0.5 to 1	93
C=CC(=O)N1CCc2ccc(-c3c(-c4ccc(CN5CCN(C)CC5)cc4)[nH]c4nccc(OCC)c34)cc21 [Example 108, 1-(6-(4-ethoxy-2-(4-((4-methylpiperazin-1-yl)methyl)phenyl)-1H-pyrrolo[2,3-b]pyridin-3-yl)indolin-1-yl)prop-2-en-1-one]	≤ 0.1	0.1 to 0.5	0.1 to 0.5	≤ 0.1	≤ 0.1	≤ 0.1	0.5 to 1	86
C=CC(=O)Nc1cc(-c2c(-c3ccc(N4CCN(C)CC4)c(F)c3)[nH]c3ncc(C(=O)OC(C)C)cc23)ccc1C [Example 164, isopropyl 3-(3-acrylamido-4-methylphenyl)-2-(3-fluoro-4-(4-methylpiperazin-1-yl)phenyl)-1H-pyrrolo[2,3-b]pyridine-5-carboxylate]	≤ 0.1	0.1 to 0.5	0.1 to 0.5	≤ 0.1	≤ 0.1	0.1 to 0.5	1 to 100	>99
C=CC(=O)N1CCc2ccc(-c3c(-c4ccc(N5CCN(C)CC5)cc4)[nH]c4nccc(OC(C)C)c34)cc21 [Example 115, 1-(6-(4-isopropoxy-2-(4-(4-methylpiperazin-1-yl)phenyl)-1H-pyrrolo[2,3-b]pyridin-3-yl)indolin-1-yl)prop-2-en-1-one 2,2,2-trifluoroacetate]	≤ 0.1	0.1 to 0.5	0.1 to 0.5	≤ 0.1	≤ 0.1	≤ 0.1	0.5 to 1	>99
C=CC(=O)N1CCc2ccc(-c3c(-c4cccc(CN5CCN(C)CC5)c4)[nH]c4nccc(Cl)c34)cc21 [Example 69, 1-(6-(4-chloro-2-(3-((4-methylpiperazin-1-yl)methyl)phenyl)-1H-pyrrolo[2,3-b]pyridin-3-yl)indolin-1-yl)prop-2-en-1-one]	≤ 0.1	0.1 to 0.5	0.1 to 0.5	≤ 0.1	≤ 0.1	≤ 0.1	0.5 to 1	98
